Source: US20150004110A1, “NOVEL ANTI-AGING AND DEPIGMENTING COSMETIC COMPOSITIONS” (DIVERCHIM, priority 2011, published 2015)
Where two headings read alike, the source gives them in different places.

Assays:
[1] = system: B16 melanocytes stimulated with NDP-MSH; test: Anti-melanogenesis activity: melanin synthesis in B16 melanocytes stimulated with NDP-MSH; assay type: cell-based; conditions: Melanocyte, read-out: Standardized data Inhibition (%) (melanin)
Method: The depigmenting effect was evaluated on a line of type B16 melanocytes stimulated with NDP-MSH, (natural hormone stimulating melanogenesis; Melanocyte Stimulating Hormone, [Nle, DPhe]-α-MSH). Melanin synthesis was evaluated.
The anti-melanogenesis activity of the compounds in solution in DMSO was evaluated by measuring melanin synthesis in a model of B16 melanocytes stimulated with a stable derivative of α-MSH (natural melanogenesis stimulating hormone): NDP-MSH.
(§1) The melanocytes were seeded in a 96-well plate and were cultured for 24 h (37° C., 5% CO2, DMEM 1 g/L glucose without phenol red supplemented with glucose at 3 g/L, L-glutamine at 2 mM, penicillin at 50 U/mL, streptomycin at 50 μg/mL, foetal calf serum (FCS) at 10%). After incubation, the culture medium was then replaced with culture medium supplemented or not supplemented (unstimulated control) with a stable derivative of α-MSH and containing or not containing (controls) the test compounds or the reference (kojic acid at 25, 100, 400, 800 μg/mL). Each experiment was carried out with n=3, apart from the controls carried out with n=6, then the cells were incubated for 72 h. Wells without cells received in parallel the same quantities of medium supplemented or not supplemented with NDP-MSH and containing or not containing the test compounds or the reference in order to quantify the background noise associated with the presence of the compounds.
After incubation for 72 hours, the total melanin (intra- and extracellular) was quantified by measuring the absorption at 405 nm of each sample (direct reading of the culture plates) against a standard range of melanin (melanin concentrations tested from 0.78 to 100 μg/mL). The background noise, measured in the wells without cells, was subtracted from the measured values so as only to take into account the effect connected with melanin production, without taking into account the possible interference connected with the presence of the compounds. The results were expressed as percentage of melanin relative to the control as well as percentage inhibition.
The operating conditions are the same as in Example 12.

B16 melanocytes = test: Cell viability, MTT reduction test; assay type: cell-based
Method: as §1, with “compounds. At the end of the treatment, the cells were incubated in the presence of MTT (tetrazolium salt), the transformation of which to blue crystals of formazan is proportional to the activity of succinate dehydrogenase (mitochondrial enzyme). After dissociation of the cells, the formazan was dissolved in DMSO medium and the optical density (OD), representative of the number of living cells and of their metabolic reactivity, was measured with a microplate reader at 540 nm (VERSAmax, Molecular Devices). The operating conditions are the same as in Example 12.” for “compounds.”

[2] = NDP-MSH stimulated B16, 72 h, Table 2
[3] = comparison with 2 reference molecules, Table 3

Row | Compound | inhibition at 30 µM [1, 2] [%] | Viability (MTT) % stimulated control (B16 melanocytes; 30 μM, B16, 72 h, Table 2) [%] | inhibition at 3 µM [1, 2] [%] | inhibition at 10 µM [1, 2] [%] | Viability (MTT) % stimulated control (B16 melanocytes; 3 μM, B16, 72 h, Table 2) [%] | Viability (MTT) % stimulated control (B16 melanocytes; 10 μM, B16, 72 h, Table 2) [%] | further results
1 | Oc1ccc(OCCc2ccccc2F)cc1 [Compound 27] | 95 | 77 |  |  |  |  | 
2 | CC(=O)OC[C@H]1OC(Oc2ccccc2CCOc2ccc(F)cc2)[C@H](OC(C)=O)[C@@H](OC(C)=O)[C@@H]1OC(C)=O (stereo partly drawn) [Compound 30] | 13 | 88 |  |  |  |  | 
3 | Oc1ccccc1CCOc1ccc(Cl)cc1 [Compound 31] | 109 | 88 | 20 | 70 | 91 | 104 | 
4 | CCc1ccc(OCCc2ccccc2O)cc1 [Compound 35] | 112 | 88 | 54 | 92 | 105 | 97 | 
5 | CC(C)c1ccc(OCCc2ccccc2O)cc1 [Compound 39] | 119 | 86 | 70 | 111 | 119 | 101 | 
6 | CC(C)c1ccc(OCC(=O)c2ccccc2O)cc1 [Compound 40] | 58 | 90 |  | 5 |  | 102 | 
7 | CCC(C)(C)c1ccc(OCCc2ccccc2O)cc1 [Compound 43] | 120 | 9 | 88 | 119 | 116 | 90 | 
8 | CCC(C)(C)c1ccc(OCC(=O)c2ccccc2O)cc1 [Compound 44] | 117 | 80 |  | 24 |  | 89 | 
9 | CC(C)(C)c1ccc(OCCc2ccccc2O)cc1 [Compound 47] | 116 | 18 | 75 | 111 | 116 | 89 | 
10 | CCOc1ccc(OCC(O)c2ccccc2O)cc1 (stereo not drawn) [Compound 57] | 47 | 97 |  |  |  |  | 
11 | COc1ccccc1OCC(O)c1ccccc1O (stereo not drawn) [Compound 125] | 13 | 90 |  |  |  |  | 
12 | CC(=O)O[C@@H]1[C@@H](OC(C)=O)[C@@H](OC(C)=O)C(Oc2ccccc2CCOc2ccc(F)cc2)O[C@H]1C (stereo partly drawn) [Compound 127] | 29 | 90 |  |  |  |  | 
13 | CCCc1ccc(OCCc2ccccc2O)cc1 [Compound 130] | 116 | 81 | 72 | 110 | 98 | 89 | 
14 | O=c1cc(CO)occ1O [Kojic acid, reference compound] |  |  |  |  |  |  | inhibition at 25 µg/mL ([1]; 25 μg/mL, NDP-MSH stimulated B16, 72 h, Table 2): 24%; inhibition at 100 µg/mL ([1]; 100 μg/mL, NDP-MSH stimulated B16, 72 h, Table 2): 78%; inhibition at 400 µg/mL ([1]; 400 μg/mL, NDP-MSH stimulated B16, 72 h, Table 2): 90%; Viability (MTT) % stimulated control (B16 melanocytes; 25 μg/mL, B16, 72 h, Table 2): 85%; Viability (MTT) % stimulated control (B16 melanocytes; 100 μg/mL, B16, 72 h, Table 2): 76%; Viability (MTT) % stimulated control (B16 melanocytes; 400 μg/mL, B16, 72 h, Table 2): 76%
15 | CCCCc1ccc(O)cc1O [Ref 1, 4-(2,4-dihydroxyphenyl)butane, reference compound] |  |  |  |  |  |  | inhibition at 30 µM [1, 3]: 82%; inhibition at 100 µM [1, 3]: 100%
16 | COc1ccc(CCCc2ccc(O)cc2O)c(OC)c1C [Ref 2, 1-(2,4-dihydroxyphenyl)-3-(2,4-dimethoxy-3-methylphenyl)propane, reference compound] |  |  |  |  |  |  | inhibition at 30 µM [1, 3]: 45%; inhibition at 100 µM [1, 3]: 113%; Viability (MTT) % stimulated control (B16 melanocytes; 30 μM, comparison with 2 reference molecules, Table 3): 102%; Viability (MTT) % stimulated control (B16 melanocytes; 100 μM, comparison with 2 reference molecules, Table 3): 76%
